Assay: Human HepG2 cell viability assay in 384 well format
Type: toxicity, cell-based
Design: dose 125 nL, time 70.5 hour; concentration not given beside the values
Conditions: HepG2 cells, read-out: Inhibition

Row | SMILES | cytotoxicity at 70.5 h [%]
1 | CS(=O)(=O)NCCC(=O)NC1CCc2nccn2C1 (centres undefined) | -4.75
2 | c1cnc(Nc2ccc(C3CCCCN3Cc3ccncc3)cn2)nc1 (centres undefined) | -6.32
3 | O=C(NCCc1csc(-c2ncccn2)n1)c1cnn2c1CCCC2 | -18.5
4 | Cn1ncnc1NCc1ccc(Br)cc1 | -5.73
5 | CC(C)CC(=O)NS(=O)(=O)c1ccc(C#N)cc1C(F)(F)F | -3.13
6 | Cc1cccc(S(=O)(=O)N2CCC3(CC2)CC(N(C)C)CO3)c1 (centres undefined) | -10.7
7 | Cc1noc(C2CCCCN2C(=O)NCc2ccco2)n1 (centres undefined) | -19.9
8 | CC(C)N(C)CCCNC(=O)c1cnc(-c2ccccc2)nc1 | 2.52
9 | Cc1cccc(C(C(=O)NCCCc2ccccn2)N(C)C)c1 (centres undefined) | 21.2
10 | CCN1CCC2(COCc3cnc(-c4cccnc4)nc32)C1 (centres undefined) | -13.9
11 | O=C(Nc1ccccn1)C1=NN(c2ccccc2)C(=O)CN1 | 45.9
12 | CN1CCC(NC(=O)NCc2csc(Br)c2)CC1 | -10.7
13 | COC(C)c1cccc(NCc2cccc(O)c2)c1 (centres undefined) | -4
14 | Cc1ccc(C)c(OCCN2CCC(N3CCNC3=O)CC2)c1 | -3.76
15 | Cc1cc2n(n1)CC(CNCc1ccc(N3CCOCC3)nc1)CN2 (centres undefined) | -9.07
16 | CN1CCN(c2ncnc3c2CCN(Cc2nccn2C)CC3)CC1 | 6.69
17 | N#Cc1cccc(N2CCCC3(CN(C(=O)c4ccc[nH]4)CCO3)C2)c1 (centres undefined) | -5.89
18 | O=C1CCCN1CCCC(=O)N1CCC2(CC1)[C@H](O)C[C@@H]2O | -0.254
19 | Cn1c2ccc(F)cc2c2ncn(CCCN(CCO)CCO)c(=O)c21 | 18.9
20 | CC(C)Oc1ccccc1-c1cc(CN)ccc1F | 5.05
21 | COCCC(=O)N1C[C@H]2CN(Cc3cccnc3)C(=O)[C@H]2C1 | 4.13
22 | C=C(C)CN1CCC(c2n[nH]c(C3CC3)n2)CC1 | 23.2
23 | O=S(=O)(c1cccs1)N1CCN(Cc2nc(-c3ccco3)cs2)CC1 | 1.85

Row | SMILES | cytotoxicity at 70.5 h [%]
24 | Cc1n[nH]c(C)c1CCc1ccc(S(C)(=O)=O)cc1 | -13.7
25 | Cc1c(C(=O)N(C)C)cccc1N(C)S(C)(=O)=O | 0.872
26 | CCCc1c(C(=O)N2CCN(Cc3ccccn3)CC2)cnn1C | -14.7
27 | COCc1cccc(C(=O)N(C)Cc2ncc(C)c(OC)c2C)c1 | -8.49
28 | COCCN1CCC(NC(=O)Cn2cc(C)c3ccccc32)CC1 | 12.3
29 | O=C(CC1CC1)N[C@@H]1CN(Cc2ccco2)C[C@@H]2CCCO[C@@H]21 | -2.26
30 | Cc1ccc(SCCCNC(=O)c2cn([C@H]3CC[C@@H](N)CC3)nn2)cc1 | 20.6
31 | Cc1cc(-c2cc(N)c(=O)n(CC(=O)N3CCCC(C)C3)n2)c(C)o1 (centres undefined) | -9.35
32 | CCc1nsc(N2CCOC3(CCCC3)C2)n1 | -3.55
33 | CN(C)[C@@H]1CN(Cc2ccoc2)C[C@@H]2CCCO[C@@H]21 | -8.48
34 | CCN(CC(=O)NC)S(=O)(=O)c1cnc2c(c1)c(C)nn2C | -14.3
35 | CC(C)NC(=O)[C@@H]1CN(Cc2nccs2)C[C@H]2OCC[C@H]21 | 36
36 | Cc1nnc(C2Cc3ccccc3CN2Cc2c(C)noc2C)o1 (centres undefined) | -1.11
37 | CCc1nnc(CN2CCCCC2Cn2nc(C)nc2C)o1 (centres undefined) | -5.83
38 | CCN(CC)S(=O)(=O)N(C)Cc1ccc2c(c1)OCCO2 | -2.26
39 | Cc1ccc(S(=O)(=O)N2C[C@H]3C[C@H](NC(=O)C(C)C)[C@H]3C2)cc1 | 20.3
40 | CCO[C@@H]1CC[C@H]2[C@H]1OCCN2C(=O)CC1=CCCCC1 | -2.71
41 | CCc1noc(CSc2n[nH]c(-c3ccccn3)n2)n1 | -3.21
42 | COC(=O)c1ccc(C(=O)N2CCC(c3nnc(C)s3)CC2)cc1 | -10.2
43 | COc1ccccc1Oc1cncc(C2CCCN(CC(N)=O)C2)n1 (centres undefined) | 11.9
44 | Cc1cc(C(=O)NCc2cccnc2N2CCc3ccccc3C2)[nH]n1 | -3.47
45 | CCCNC(=O)CCOc1cccc(F)c1 | -3.12
46 | COC(=O)N1CCCN(C(=O)NCc2ccc(Cl)s2)CC1 | 10.1

Row | SMILES | cytotoxicity at 70.5 h [%]
47 | C=C(C)COc1ccc(C(=O)N(C)C(C)c2ccon2)cc1 (centres undefined) | -9.63
48 | O=C(NCc1ccco1)[C@H]1CC[C@@H]2[C@@H](CCN2c2ncc(F)cn2)O1 | -10.2
49 | COCCO[C@H]1CCN(c2ccc(C)nn2)[C@H]1Cc1cnn(C)c1 | -3.27
50 | Cc1nc(CN2CCC(N(C)Cc3noc(C(C)C)n3)C2)cs1 (centres undefined) | 33.4
51 | Cc1ccc(O)c(CNc2cccc(OCCF)c2)n1 | -5.5
52 | Cc1ccc(CN2CCCC3(CCCCN3S(C)(=O)=O)C2)s1 (centres undefined) | 19.2
53 | c1cnc(NCc2cncc3c2CCN(Cc2cccnc2)C3)nc1 | -5.03
54 | CCOc1cc(CN(C)CCC(=O)OC)ccc1OC(F)F | -2.34
55 | CS(=O)(=O)Cc1ccc(C(=O)Nc2ccc3c(c2)C(=O)NC3)cc1 | -6.71
56 | Cc1cc2nc(C(C)C)cc(N3CCC(O)CC3)n2n1 | -9.55
57 | CN(Cc1ccc(C2CC(=O)Nc3cc4[nH]ncc4cc32)o1)S(C)(=O)=O (centres undefined) | -0.109
58 | CCn1c(C2CCN(C(=O)c3cc(Cl)no3)CC2)nn(C)c1=O | 39
59 | CC(C)c1ccc(S(=O)(=O)Cc2nc(N)nc(N(C)C)n2)cc1 | -1.91
60 | O=C(Nc1cnc(Oc2ccccc2F)nc1)C1CC1 | -3.71
61 | COc1cccc(NC(=O)NCC(O)c2ccc(F)cc2F)c1 (centres undefined) | -6.35
62 | Cc1nc2cc(C3CCCCN3C(=O)C3CC3)nn2c(O)c1C (centres undefined) | -2.34
63 | Cc1cc(NC(=O)CN2CCC(N(C)Cc3ncc(C)o3)C2)n(C)n1 (centres undefined) | 16.2
64 | CN(C)c1ncccc1CNS(=O)(=O)c1ccc(C(N)=O)cc1 | -7.08
65 | CCS(=O)(=O)N1CCC(OC)c2ccccc2N(CC(=O)NC)C(=O)C1 (centres undefined) | -1.92
66 | Cc1cccc(OCCN2CCC(c3ccnn3CCO)CC2)c1 | -7.3
67 | Cc1oc(C(=O)O)cc1S(=O)(=O)Nc1cc(F)ccc1F | 5.73
68 | CN(Cc1nncn1C)C(=O)c1cc(COc2ccccc2F)[nH]n1 | -11.1
69 | Cc1ccnc(C2CN(c3ncccn3)C2)n1 | -12.1

Row | SMILES | cytotoxicity at 70.5 h [%]
70 | CCN(CC(=O)NC(C)C)C(=O)c1ccc(-c2ccsc2)nc1C | -3.6
71 | CC(CNC(=O)Nc1ccc(F)cc1-n1cccc1)N1CCOCC1 (centres undefined) | 4.4
72 | CC(=O)N1CC2(CCN(C(=O)N(C)C)CC2)c2cc(C)ccc21 | 5.58
73 | N#Cc1cccc(CN2CCO[C@@H]3CNC[C@@H]32)c1 | -1.26
74 | c1ccc(-n2ccc(CN3CCCC(Cn4cncn4)C3)n2)cc1 (centres undefined) | 0.226
75 | CCN(C)S(=O)(=O)c1ccc(Cl)cc1C#N | -7.9
76 | CC(C)Cc1n[nH]c(C2CC(=O)N(CC(C)C)C2)n1 (centres undefined) | -5.1
77 | CC(C)COCc1cncc2c1CCN(C(=O)c1cscn1)C2 | -2.6
78 | CCOc1ccc(N(CC(=O)c2ccccc2)C2=NCCCCC2)cc1 | -9.89
79 | c1cnn(CCN2CCOC(Cn3cncn3)C2)c1 (centres undefined) | 6.43
80 | Cc1ccc(F)c(OC2(C(=O)O)CCN(C(=O)c3ccco3)CC2)c1 | -7.46
81 | O=C(NCCCn1cccn1)N1CCCC1c1ccncc1 (centres undefined) | 6.98
82 | CCCc1n[nH]c(C2CN(CCc3cccs3)CCO2)n1 (centres undefined) | -3.81
83 | O=C(NCCN1CCc2ccccc2C1)c1scnc1Cl | -1.52
84 | CCN(Cc1nc2c(cnn2C)c(=O)[nH]1)c1ccc(OC)c(OC)c1 | -7.15
85 | CS(=O)(=O)N1CCc2c(cccc2NC(=O)NC2CCCC2)C1 | -3.1
86 | N#Cc1cccc(OCc2ccoc2C(=O)N2CCCCC2)c1 | 3.19
87 | O=C(c1ccco1)N1C[C@@H]2[C@@H](C1)OCC(=O)N2Cc1cccnc1 | 7.81
88 | COC(=O)c1cccc(C(=O)N2CCN(C(=O)N(C)C)CC2(C)C)c1 | 16.9
89 | CN(C)C(=O)CN1CCC2(CCN(C(=O)N(C)C)CC2)C1=O | 17
90 | Cc1cc(CN2CCC(C3CCN(Cc4cccnc4)CC3)C2)[nH]n1 (centres undefined) | -6.23
91 | CCC(C(=O)NCc1csc(N2CCOCC2)n1)n1cccn1 (centres undefined) | -4.73
92 | COc1ccc(-c2cccc(-c3ccn(CC4COCCO4)n3)c2)nn1 (centres undefined) | -5.24

Row | SMILES | cytotoxicity at 70.5 h [%]
93 | CN(C)C(=O)N1CCN(Cc2ccccc2)[C@@H]2CS(=O)(=O)C[C@@H]21 | -7.42
94 | CC(c1ccccn1)N(C)Cc1ccc(-n2ccnc2)cc1 (centres undefined) | 1.45
95 | c1ccc(-c2nc(CN3CCCC3Cn3cncn3)co2)cc1 (centres undefined) | -7.46
96 | Fc1cccc2[nH]c(CN3CCn4c(nnc4C4CC4)C3)nc12 | 1.58
97 | CCOc1ccnc(NCc2nc(C)cc(=O)[nH]2)n1 | -6.71
98 | CCn1nc(C)c(CNC(=O)NCC(C)(O)c2ccco2)c1C (centres undefined) | -1.92
99 | CS(=O)(=O)NCC(=O)N[C@H]1CN(c2cnccn2)C[C@@H]1C1CC1 | 9.56
100 | CN1CCOC(CNCc2ccc(OCc3ccccn3)cc2)C1 (centres undefined) | -6.69
101 | O=C1CC2(CCN(c3nncs3)C2)CN1c1cccc(F)c1 (centres undefined) | -3.52
102 | CC(NC(=O)NCCCN1CCCCCC1=O)c1nncn1C (centres undefined) | 10.2
103 | CC1CN(C)CCN1C(=O)c1cccn1Cc1ccncc1 (centres undefined) | -0.0265
104 | CN1CCNC(Cc2ccc(-c3ccncc3)cc2)C1=O (centres undefined) | -5.04
105 | CCC(CC)C(=O)n1ccn(S(=O)(=O)c2ccc(C)cc2)c1=O | 15.1
106 | Nc1nc2c(c(N3CCC(CCn4cccn4)CC3)n1)CCNCC2 | -5.53
107 | Cc1nc(CC(C)C)sc1C(=O)N1CCC(C2(C)OCCO2)CC1 | 2.11
108 | CCc1noc(C(C)Sc2nnc(C3CC3)n2CC(N)=O)n1 (centres undefined) | -0.541
109 | COc1cccn(Cc2nnc(-c3cccc(F)c3)o2)c1=O | -3.37
110 | CCn1cc(CN(C)S(=O)(=O)c2cnn(C)c2)cn1 | -6.45
111 | c1nc(CCC2CCCN2)cc(N2CCCOCC2)n1 (centres undefined) | 9.03
112 | CCNC(=O)C(C)NC(=O)Nc1ccccc1SC(F)(F)F (centres undefined) | -10.8
113 | O=S(=O)(NC1=NCN(CCc2cccs2)CN1)c1ccc(F)cc1 | -20.8
114 | Cn1ncnc1NCc1ccc(F)cc1 | -9.9

Reference: ChEMBL document CHEMBL3507680, “University of Dundee, Gates Library screen for HepG2 cell viability”
